Test results as given in patent US9358266B2, “Treatment of sepsis using complement inhibitors” (The Trustees of the University of Pennsylvania, priority 2010, dated 2016).

Tests used:
[1] = system: complement; assay: Complement activation in LD100 model of E. coli sepsis in baboons; assay type: in vivo, Papio cyanocephalus; settings: for % Complement Activation at T+120 min: untreated avg. 2.8
Method: (§1) Reagents, Compstatin analog and live E. coli organisms were obtained or prepared as described in Example 1. Papio cyanocephalus baboons were infused with 2-3×10^10 CFU/kg live E. coli (LD100 dose) as described (Taylor F B, Jr., et al., 2000, Blood 95: 1680-1686). The time point at which the infusion was started was indicated as T-0, a time point of n minutes or hours thereafter referred to as T+n minutes (or hours). The Compstatin analog was administered at three different concentrations as an intravenous bolus followed by continuous infusion.
(§2) Complement activity was measured in accordance with known methods. Survival time was also recorded.

[2] = system: baboon complement; settings: relative to human complement; Sahu et al. 2003; cited from earlier work
[3] = target: primate C3 (Homo sapiens, UniProt P01024); settings: Janssen et al. 2007; cited from earlier work
[4] = system: human complement; settings: relative to baboon complement; Sahu et al. 2003; cited from earlier work
[5] = system: baboons infused with live E. coli (LD100 dose); assay: Survival time in LD100 model of E. coli sepsis in baboons; assay type: in vivo, Papio cyanocephalus; settings: for Survival Time: no antibiotics
Method: as §1, §2

[6] = system: baboons infused with live E. coli (LD50 dose); assay: Hematological parameters and cell accumulation in organs, baboon LD50 E. coli sepsis; assay type: in vivo, Papio cyanocephalus
[7] = system: baboons infused with live E. coli (LD50 dose); assay: Plasma cytokines multiplex assay, baboon LD50 E. coli sepsis; assay type: in vivo, Papio cyanocephalus
[8] = system: baboons infused with live E. coli (LD50 dose); assay: Immunofluorescence of complement pathway proteins in kidney, baboon LD50 E. coli sepsis; assay type: in vivo, Papio cyanocephalus
[9] = system: baboons infused with live E. coli (LD50 dose); assay: Immunofluorescence and qRT-PCR of hemostatic proteins (PAI-1, TF, TFPI, TM) in lung and liver, baboon LD50 E. coli sepsis; assay type: in vivo, Papio cyanocephalus; settings: for PAI1 mRNA in liver: vs non-challenged controls (1±0.6), E. coli alone 22-fold (±9)
[10] = system: baboons infused with live E. coli (LD50 dose); assay: Blood pressure and organ function biochemical tests, baboon LD50 E. coli sepsis; assay type: in vivo, Papio cyanocephalus
[11] = system: complement; assay: Complement activation products and complement activity in plasma, baboon LD50 E. coli sepsis; assay type: in vivo, Papio cyanocephalus
[12] = system: baboons infused with live E. coli (LD50 dose); assay: Coagulation tests (fibrinogen, FDP, APTT), baboon LD50 E. coli sepsis; assay type: in vivo, Papio cyanocephalus
[13] = system: baboons infused with live E. coli (LD50 dose); assay: Histopathological analysis of organs, baboon LD50 E. coli sepsis; assay type: in vivo, Papio cyanocephalus
[14] = both preventive and rescue therapy, data not shown
[15] = immunofluorescence MFI of kidney cryosections, T+24, T0 and T+5 treatment, FIG. 2
[16] = kidney immunofluorescence, FIG. 2
[17] = lung cryosections immunofluorescence, both early and late treatments, FIG. 5A
[18] = septic baboons, infusion with Compstatin analog
[19] = histology at 24 hrs vs non-treated group

Sequence of primate C3 (P01024 23-1663): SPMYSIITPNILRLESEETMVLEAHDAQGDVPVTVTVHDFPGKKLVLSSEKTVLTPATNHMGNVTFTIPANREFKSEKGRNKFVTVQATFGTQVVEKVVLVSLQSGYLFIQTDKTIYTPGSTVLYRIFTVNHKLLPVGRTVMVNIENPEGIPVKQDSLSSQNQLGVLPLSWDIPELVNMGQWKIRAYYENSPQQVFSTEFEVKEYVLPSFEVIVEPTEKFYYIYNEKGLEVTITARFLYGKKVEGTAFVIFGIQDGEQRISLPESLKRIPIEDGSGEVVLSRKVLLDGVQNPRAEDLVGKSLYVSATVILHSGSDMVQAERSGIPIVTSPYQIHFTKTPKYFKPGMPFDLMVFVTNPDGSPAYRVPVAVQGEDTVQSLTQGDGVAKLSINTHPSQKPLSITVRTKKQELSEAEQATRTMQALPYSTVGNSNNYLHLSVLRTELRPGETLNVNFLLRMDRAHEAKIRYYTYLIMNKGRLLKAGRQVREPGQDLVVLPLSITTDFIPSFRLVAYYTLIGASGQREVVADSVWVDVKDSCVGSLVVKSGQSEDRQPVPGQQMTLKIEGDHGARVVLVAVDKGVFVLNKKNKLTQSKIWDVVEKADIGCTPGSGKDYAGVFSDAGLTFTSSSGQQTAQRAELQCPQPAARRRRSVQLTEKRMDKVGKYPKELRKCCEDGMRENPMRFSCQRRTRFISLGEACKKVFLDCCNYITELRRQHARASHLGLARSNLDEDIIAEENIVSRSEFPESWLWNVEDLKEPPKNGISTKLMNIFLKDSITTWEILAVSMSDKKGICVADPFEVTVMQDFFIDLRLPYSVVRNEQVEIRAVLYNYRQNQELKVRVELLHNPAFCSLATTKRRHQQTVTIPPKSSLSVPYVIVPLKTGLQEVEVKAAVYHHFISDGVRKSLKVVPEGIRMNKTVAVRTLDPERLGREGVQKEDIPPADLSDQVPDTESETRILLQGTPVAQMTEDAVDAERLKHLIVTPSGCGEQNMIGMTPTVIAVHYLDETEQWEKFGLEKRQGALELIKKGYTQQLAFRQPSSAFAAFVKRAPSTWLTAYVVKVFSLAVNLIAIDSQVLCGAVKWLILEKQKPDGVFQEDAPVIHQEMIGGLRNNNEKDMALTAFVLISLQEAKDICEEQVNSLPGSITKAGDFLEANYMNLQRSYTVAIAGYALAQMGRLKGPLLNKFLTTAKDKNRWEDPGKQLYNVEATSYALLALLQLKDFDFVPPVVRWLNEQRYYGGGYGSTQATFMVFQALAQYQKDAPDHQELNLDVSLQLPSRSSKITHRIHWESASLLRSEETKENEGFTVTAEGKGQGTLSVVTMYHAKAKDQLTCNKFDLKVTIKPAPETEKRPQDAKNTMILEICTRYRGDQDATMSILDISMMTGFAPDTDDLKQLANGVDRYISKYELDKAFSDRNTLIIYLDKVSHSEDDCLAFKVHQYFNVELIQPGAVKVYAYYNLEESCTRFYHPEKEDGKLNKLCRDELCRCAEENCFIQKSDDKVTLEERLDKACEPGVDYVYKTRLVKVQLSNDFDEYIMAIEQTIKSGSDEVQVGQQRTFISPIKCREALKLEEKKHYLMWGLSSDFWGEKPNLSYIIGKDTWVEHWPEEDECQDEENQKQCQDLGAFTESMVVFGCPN

Molecule: CC[C@H](C)[C@H](N)C(=O)N[C@H]1CSSC[C@@H](C(=O)N[C@H](C(N)=O)[C@@H](C)O)NC(=O)[C@H](CCCN=C(N)N)NC(=O)[C@H](Cc2cnc[nH]2)NC(=O)[C@H](Cc2cnc[nH]2)NC(=O)CNC(=O)[C@H](Cc2c[nH]c3ccccc23)NC(=O)[C@H](CC(=O)O)NC(=O)[C@H](CCC(N)=O)NC(=O)[C@H](C(C)C)NC(=O)[C@H](C(C)C)NC1=O [Compstatin, Ile-Cys-Val-Val-Gln-Asp-Trp-Gly-His-His-Arg-Cys-Thr]
- % Complement Activation at T+120 min ([1]; animal 1, bolus 0.33 mg/kg T−0, 1.74 mg/kg T+60, infusion 20 μg/min/kg (8 hrs), total 58 mg): 0.6%
- % Complement Activation at T+120 min ([1]; animal 2, bolus 1.0 mg/kg T−0, 2.3 mg/kg T+60, infusion 20 μg/min/kg (8 hrs), total 78 mg): 0.5%
- % Complement Activation at T+120 min ([1]; animal 3, bolus 10 mg/kg T−0, infusion 200 μg/min/kg (8 hrs), total 760 mg): 0.0%
- inhibition of complement activation by T+120 minutes ([1]; animal receiving the highest concentration): complete inhibition
- inhibition of complement activation by T+120 minutes ([1]; animals receiving the lesser concentrations): substantial inhibition
- inhibition of baboon complement [2]: approximately equimolar concentrations
- binding to primate C3 [3]: specifically binds
- inhibition of human complement [4]: approximately equimolar concentrations
- Survival Time ([5]; animal 1, bolus 0.33 mg/kg T−0, 1.74 mg/kg T+60, infusion 20 μg/min/kg (8 hrs)): 31.5 h
- Survival Time ([5]; animal 2, bolus 1.0 mg/kg T−0, 2.3 mg/kg T+60, infusion 20 μg/min/kg (8 hrs)): 7.0 h
- Survival Time ([5]; animal 3, bolus 10 mg/kg T−0, infusion 200 μg/min/kg (8 hrs)): 11.5 h
- survival of treated animals ([5]; no antibiotic treatment): died within a few hours

Molecule: Ac-I[CVW(Me)QDWGAHRCT]I-NH2 [Compstatin analog]
- accumulation of macrophages in the lung ([6]; FIG. 3C): lower accumulation
- accumulation of platelets in the lung and on the surface of the large vessels ([6]; FIG. 3D-E): lower accumulation
- WBC count in blood ([6]; both prevention and rescue regimens, FIG. 3A): faster WBC recovery
- platelet count in blood (platelet consumption) ([6]; both prevention and rescue regimens, FIG. 3B): lower plasma platelet consumption
- number of neutrophils ([6]; immunostaining for cell specific markers, not shown): without significant changes
- CD68 positive macrophages ([6]; immunostaining, lung, FIG. 3C): significant decrease
- C5b9 deposition on aggregated platelets ([6]; lung and large vessels, FIG. 3D-E): decreased C5b9 deposition
- effect on plasma cytokines ([7]; 23-plex assay, nine increased by sepsis, except eotaxin and IL-6, data not shown): marginal
- plasma IL-6 [7, 14]: reduction
- plasma eotaxin [7, 14]: reduction
- C3b deposition in the kidney [8, 15]: significantly inhibited
- C5b9 deposition in the kidney [8, 15]: significantly inhibited
- MBL deposition in the kidney [8, 15]: significantly inhibited
- shedding of CD55 from the endothelial surface [8, 16]: protected against shedding
- shedding of CD59 from the endothelial surface [8, 16]: protected against shedding
- mRNA expression of CD55 and CD59 ([8]; qRT-PCR, data not shown): without significantly affecting
- E. coli induced PAI-1 staining in lung [9, 17]: decreased
- E. coli induced TF staining in lung [9, 17]: decreased
- TFPI in endothelial cells of lung [9, 17]: protected against sepsis-induced downregulation
- TM in endothelial cells of lung [9, 17]: protected against sepsis-induced downregulation
- TF expression in the lung ([9]; treated animals): decrease
- monocyte/macrophages infiltration in the lung ([9]; treated animals): decrease
- PAI1 mRNA in liver ([9]; treated at T0, mean (±SEM 8)): 8 fold
- PAI1 mRNA in liver ([9]; treated at T+5, mean (±SEM 0.8)): 4 fold
- PAI-1 expression in endothelial cells and macrophages ([9]; treated versus non-treated septic baboons): down-regulated
- creatinine, magnitude of the response ([10]; T+8 and T+24, two treatment groups vs non treated septic animals, FIG. 6B): lower
- LDH, magnitude of the response ([10]; T+8 and T+24, two treatment groups vs non treated septic animals, FIG. 6C): lower
- ALT, magnitude of the response ([10]; T+8 and T+24, two treatment groups vs non treated septic animals, FIG. 6D): lower
- AST, magnitude of the response ([10]; T+8 and T+24, two treatment groups vs non treated septic animals, FIG. 6E): lower
- decrease of mean systemic arterial blood pressure ([10]; early treatment (T0 to T+8), FIG. 6A): virtually abolished this decrease
- mean systemic arterial blood pressure ([10]; treatment during the second stage (T+5 to T+11), compared with septic untreated baboons, FIG. 6A): higher recovery of the blood pressure in the late phase
- plasma complement activity ([11]; 10 mg/kg iv bolus + 60 μg/kg/min, both preventive (T0 to T+8) and rescue (T+5 to T+11) treatments, FIG. 1A): inhibited
- plasma TCC levels ([11]; 10 mg/kg iv bolus + 60 μg/kg/min, both preventive (T0 to T+8) and rescue (T+5 to T+11) treatments, FIG. 1B): inhibited
- late rise of plasma TCC levels ([11]; rescue regimen (T+5 to T+11) compared with prevention group, FIG. 1B): averting the late rise observed in the prevention group
- C3a generation [11, 18]: rapidly inhibited
- C3b generation [11, 18]: rapidly inhibited
- fibrinogen levels ([12]; after 24 hours, compared with non-treated animals, FIG. 4A): fully recovered and overshot the initial values
- fibrinogen consumption ([12]; first eight hours post-challenge, FIG. 4A): reduced fibrinogen consumption
- FDP levels ([12]; treated vs non-treated animals, FIG. 4B): significantly lower
- APTT ([12]; treated vs non-treated animals, FIG. 4C): slightly decreased
- histopathologic changes of the tissues (graded 0 to 4) ([13]; T+24, two treated groups (T0, T+5) vs E coli challenge group, P<0.001, with the exception of the lung congestion, FIG. 7): significantly less severe
- cell death in adrenals and spleen [13, 19]: decreased cell death
- hepatocyte vacuolization and liver degeneration [13, 19]: lack of hepatocyte vacuolization and liver degeneration
- leukocyte infiltration in the lung, liver adrenals and spleen [13, 19]: less leukocyte infiltration
- thrombosis or capillary leak in the lungs [13, 19]: no obvious signs of thrombosis or capillary leak
- tubular necrosis and glomerular thrombosis in the kidneys [13, 19]: no or less tubular necrosis and glomerular thrombosis
- organ protection by histological analysis ([13]; organs collected after 24 hrs): substantial organ-protection
